From ChEMBL document CHEMBL2151005, “Discovery of 1H-pyrrolo[2,3-c]pyridine-7-carboxamides as novel, allosteric mGluR5 antagonists” (Bioorg Med Chem Lett, 2012)

Experiments:
physchem [1] = details: octanol/water
physchem [2] = test: physchem

`Cc1cc2cc[nH]c2c(C(=O)Nc2ccccn2)n1` gave a logP (physchem [1]) of 4.2 and a pKa (physchem [2]) of 3.5.
With `Cc1cccc(NC(=O)c2nc(C)cc3cc[nH]c23)n1` the logP (physchem [1]) was 5.3 and the pKa (physchem [2]) was 4.5.
Compound `Cc1csc(NC(=O)c2nc(C)cc3cc[nH]c23)n1` has a logP (physchem [1]) of 3.9 and a pKa (physchem [2]) of 5.6.
For `Cc1cc2cc[nH]c2c(C(=O)Nc2ccn(C)n2)n1`, the logP (physchem [1]) was 2.9 and the pKa (physchem [2]) was 4.1.
In the case of `Cc1c[nH]c(NC(=O)c2nc(C)cc3cc[nH]c23)n1`, the logP (physchem [1]) is reported as 3.1 and the pKa (physchem [2]) is reported as 7.6.
For `Cc1cccc(NC(=O)c2nc(C)cc3c(-c4ccccn4)c[nH]c23)n1`, the logP (physchem [1]) was 4.7 and the pKa (physchem [2]) was 4.5.
Work on `Cc1cc2c(-c3ccccn3)c[nH]c2c(C(=O)Nc2ccn(C)n2)n1` yielded a logP (physchem [1]) of 3.7 and a pKa (physchem [2]) of 4.6.
With `Cc1c[nH]c(NC(=O)c2nc(C)cc3c(-c4ccccn4)c[nH]c23)n1` the logP (physchem [1]) was 3.3 and the pKa (physchem [2]) was 6.9.
